The results in this text go back to patent US6831069B2, “Pyrrolo[2,3-d]pyrimidine nucleoside analogs” (priority 1999, dated 2004).

Counter-ions that a name gives are not always drawn.

Assay [1] has as its system Human Prostate cancer cells, HTB81. Put plainly: VEGF secretion, VEGF Elisa Assay. The assay is classed as cell-based. Particulars: 72 hrs treatment. The protocol: The compounds 23a(5′-R) and 23a(5′-S) are potent in inhibition of secretion of Vascular Endothelial Growth Factor (VEGF) from Human Prostate cancer cells, HTB81. VEGF is recognized as angiogenesis marker since this molecule is crucial for migration and growth of endothelial cells and microvessel formation in vivo. […] The compounds were applied just after plating for 72 hrs. After that, the medium was collected and the level of VEGF was measured using VEGF Elisa Assay (R & D Systems) and expressed as pg of VEGF per ml of the medium.

Assay [2] shares this test system. The assay can be described thus: IL-8 secretion, IL-8 Elisa Assay. The assay is classed as cell-based. The conditions noted are these: concentrations indicated in FIG. 12. From the text:
The compound 23a(5′-R) and 23a(5′-S) indicate an inhibitory effect on secretion of Interleukin-8 (IL-8) from human prostate cancer cells, HTB81. IL-8 belongs to the class of chemo-attractant chemokines (type alpha), which are involved in inflammation processes due to attraction of neutrophils. Chemokines, in general, are known to be produced by various types of cancer. It is proven in several studies that inhibition of chemokine production by cancer cells is beneficial for the host. […] The medium collected from the culture was analyzed for IL-8 level using IL-8 Elisa Assay from R&D Systems.

The test system of another assay is activated human T cells. Put plainly: Analysis of cytokine mRNA (RT-PCR, Southern blot) in PMA-ION activated human T cells. The assay is classed as cell-based. The conditions noted are these: experiment corresponding to FIG. 18; FIG. 26.
Assay [3] relates to BALB/c and C57BL/6 lymph node CD4+ T cells. The assay can be described thus: Generation of murine Th1 cells, IL-4 and IFNγ ELISA after restimulation. The assay is classed as cell-based, mouse. The conditions noted are these: murine CD4+ cells induced with IL-2, IFN-γ, IL-12; BALB/c and C57BL/6; versus without compound. On the technique in general: In an ELISA, binding on a coated surface is turned into a signal by an enzyme label.

The test system of the next assay is B10.PL (H-2u) mice. Put plainly: Murine EAE model of multiple sclerosis, prophylactic treatment. The assay is classed as in vivo, mouse. The conditions noted are these: 0.1 mg/kg IP daily for 10d before induction of disease.
The test system of the next assay is PHA stimulated T-cells. Put plainly: Type 1 and Type 2 cytokines in PHA stimulated T-cells. The assay is classed as cell-based, human. Particulars: FIG. 24.

As for `C[C@@H](O)[C@H]1O[C@@H](n2cc(C#N)c3c(N)ncnc32)[C@H](O)[C@@H]1O` [23a(5′-R), 4-Amino-5-cyano-7-(5(R)-C-methyl-β-D-ribofuranosyl)pyrrolo[2,3-d]pyrimidine], in assay [1], the “secretion of VEGF” value was “inhibit secretion of VEGF in a dose-dependent manner”. Further, in assay [2], the “secretion of IL-8” value is on record as “inhibit secretion of IL-8 in a dose-dependent manner”.
Turning to `C[C@H](O)[C@H]1O[C@@H](n2cc(C#N)c3c(N)ncnc32)[C@H](O)[C@@H]1O` [23a(5′-S), 4-Amino-5-cyano-7-(5(S)-C-methyl-β-D-ribofuranosyl)pyrrolo[2,3-d]pyrimidine], in assay [1], the “secretion of VEGF” value is on record as “inhibit secretion of VEGF in a dose-dependent manner”. Further, the “secretion of IL-8” value in assay [2] was “inhibit secretion of IL-8 in a dose-dependent manner”.
Regarding `Cl.N=C(N)c1cn([C@@H]2O[C@H](CO)[C@@H](O)[C@H]2O)c2nc[nH]c(=O)c12` [ICN 17739, 7-(β-D-ribofuranosyl)pyrrolo[2,3-d]-4-pyrimidone-5-carboxamidine Hydrochloride], the “anti-inflammatory and anti-proliferative responses (RNA expression)” value in the assay with activated human T cells was “induction of anti-inflammatory and anti-proliferative responses”.
Regarding `N=C(N)c1cn([C@@H]2O[C@H](CO)[C@H](O)C2O)c2nc[nH]c(=O)c12` (stereo partly drawn) [ICN 17739, 7-(β-D-ribofuranosyl)pyrrolo[2,3-d]-4-pyrimidone-5-carboxamidine Hydrochloride], in assay [3], the “IFN-γ production of induced Th1 cells” value is “significantly decreased” and the “IL-4 production of induced Th1 cells” value was “significantly increased”. Further, in the assay with B10.PL (H-2u) mice, the “MBP-specific Th2 cytokine producing T-cells” value is “induces MBP-specific Th2 cytokine producing T-cells” and the “onset of murine EAE” value is on record as “clearly delayed onset”. Besides, in the assay with PHA stimulated T-cells, the “Type 1 cytokines” value was “significant decrease” and the “production of Type 2 cytokines” value is “significant increase”.
